# The source made the active and inactive calls.
# Assays:
# [1] = Luminescence Cell-Based Dose Confirmation HTS to Identify Activators of 5'UTR Stem-Loop Driven Alpha-Synuclein mRNA Translation in H4 Neuroglioblastoma Cells. [Related pubchem assays: 1829 (Project Summary), 1814 (Primary HTS)]; format: functional
# [2] = Luminescence Cell-Based Dose Response HTS to Identify Activators of Luciferase Translation or Activity in H4 […] Cells. [Related pubchem assays: 1829 (Project Summary), 1814 (Primary HTS)]; format: functional
# [3] = system: H4; assay: Luminescence Cell-Based Dose Response HTS to Identify Activators of 5'UTR Stem-Loop Driven Prion Protein mRNA Translation in H4 Neuroglioblastoma Cells. [Related pubchem assays: 1829 (Project Summary), 1814 (Primary HTS)]; format: functional; settings: Homo sapiens
# [4] = target: Cytochrome P450 2D6 (Homo sapiens, UniProt P10635);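 note: CYP2D6 member of a cytochrome P450 panel assay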
# Cytochrome P450 2D6, sequence (P10635 whole entry): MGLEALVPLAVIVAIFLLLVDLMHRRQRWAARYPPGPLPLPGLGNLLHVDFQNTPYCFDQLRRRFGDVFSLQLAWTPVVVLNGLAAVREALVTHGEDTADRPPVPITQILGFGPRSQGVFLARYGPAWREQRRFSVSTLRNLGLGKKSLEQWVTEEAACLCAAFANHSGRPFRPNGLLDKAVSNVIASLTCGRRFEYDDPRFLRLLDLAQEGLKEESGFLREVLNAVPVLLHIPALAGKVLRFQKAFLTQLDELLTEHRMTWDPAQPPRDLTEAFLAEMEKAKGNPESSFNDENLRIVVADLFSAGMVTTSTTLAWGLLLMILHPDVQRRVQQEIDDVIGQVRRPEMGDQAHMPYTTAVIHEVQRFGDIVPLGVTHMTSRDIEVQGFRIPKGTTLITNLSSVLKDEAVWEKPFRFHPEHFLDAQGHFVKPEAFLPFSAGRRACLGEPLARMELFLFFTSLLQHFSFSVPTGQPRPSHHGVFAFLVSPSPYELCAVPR
# [5] = non-specific 3'UTR reporter inhibition in Clone20-Shn3RL – cell-based, Renilla luciferase, cherry-picked, counter-screen for Shn3 inhibitor project, dose response (AID 624133); format: functional
# [6] = loss of viability in HepG2 cells – cell-based, CellTiter-Glo, cherry-picked, cytotoxicity control for Shn3 inhibitor project, dose response (AID 624134); format: functional
# [7] = reduction of Shn3 3'UTR-driven luciferase in osteoblasts – cell-based, Clone20 osteoblasts, firefly luciferase, cherry-picked, dose response (AID 624132); format: functional;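 note: firefly luciferase luminescence from reporter carrying the Shn3 3'UTR in osteoblasts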
# [8] = target: T1, Corticotropin-releasing factor receptor 2/Corticotropin-releasing factor-binding protein (Homo sapiens, UniProt P24387+Q13324); assay: Dose Response confirmation of uHTS hits for small molecule antagonists of the CRF-binding protein and CRF-R2 receptor complex.; format: functional; settings: read-out: IC50_Mean
# T1 sequence (Q13324 whole entry): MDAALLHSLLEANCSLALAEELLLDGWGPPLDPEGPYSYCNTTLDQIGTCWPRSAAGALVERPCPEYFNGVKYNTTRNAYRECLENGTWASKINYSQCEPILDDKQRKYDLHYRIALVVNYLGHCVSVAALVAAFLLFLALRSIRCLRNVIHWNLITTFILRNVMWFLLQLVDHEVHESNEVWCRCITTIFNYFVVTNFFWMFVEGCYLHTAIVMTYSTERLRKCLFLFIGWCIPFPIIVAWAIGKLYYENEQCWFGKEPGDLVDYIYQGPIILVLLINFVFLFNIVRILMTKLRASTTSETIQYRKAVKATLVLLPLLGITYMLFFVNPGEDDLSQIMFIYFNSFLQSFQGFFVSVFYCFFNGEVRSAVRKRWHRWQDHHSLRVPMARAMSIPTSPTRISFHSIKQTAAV
# T1 sequence (P24387 whole entry): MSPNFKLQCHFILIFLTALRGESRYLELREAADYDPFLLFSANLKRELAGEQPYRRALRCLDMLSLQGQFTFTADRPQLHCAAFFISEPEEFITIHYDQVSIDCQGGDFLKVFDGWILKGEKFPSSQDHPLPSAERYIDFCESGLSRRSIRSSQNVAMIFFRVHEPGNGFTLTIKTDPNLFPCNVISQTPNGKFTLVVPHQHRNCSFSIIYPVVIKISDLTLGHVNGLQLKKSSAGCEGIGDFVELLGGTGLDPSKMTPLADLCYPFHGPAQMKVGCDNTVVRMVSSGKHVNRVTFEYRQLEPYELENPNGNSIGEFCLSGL
# [9] = target: T1, Corticotropin-releasing factor receptor 2/Corticotropin-releasing factor-binding protein; assay: activators of CRF receptor 2 with binding protein – uHTS hits, confirmation (AID 602473); format: functional; settings: read-out: EC50_Mean
# [10] = target: T2, Cytochrome P450 1A2 (Homo sapiens, UniProt P05177);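 note: PubChem cytochrome P450 panel assay, CYP1A2 panel member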
# T2 sequence (P05177 whole entry): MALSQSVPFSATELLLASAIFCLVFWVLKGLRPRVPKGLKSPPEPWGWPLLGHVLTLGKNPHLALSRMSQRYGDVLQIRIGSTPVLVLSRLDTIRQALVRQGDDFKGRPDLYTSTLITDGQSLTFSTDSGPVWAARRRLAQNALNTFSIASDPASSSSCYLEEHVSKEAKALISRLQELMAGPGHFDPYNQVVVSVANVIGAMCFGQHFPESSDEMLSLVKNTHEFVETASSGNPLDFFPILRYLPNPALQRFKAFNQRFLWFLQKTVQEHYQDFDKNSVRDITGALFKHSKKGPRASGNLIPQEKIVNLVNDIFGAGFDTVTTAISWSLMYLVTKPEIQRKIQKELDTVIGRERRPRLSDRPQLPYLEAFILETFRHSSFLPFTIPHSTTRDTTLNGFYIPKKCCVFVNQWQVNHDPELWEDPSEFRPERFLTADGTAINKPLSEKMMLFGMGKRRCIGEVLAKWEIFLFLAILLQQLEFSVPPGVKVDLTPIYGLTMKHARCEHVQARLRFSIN
# [11] = target: Cytochrome P450 2C9 (Homo sapiens, UniProt P11712)
# Cytochrome P450 2C9, sequence (P11712 whole entry): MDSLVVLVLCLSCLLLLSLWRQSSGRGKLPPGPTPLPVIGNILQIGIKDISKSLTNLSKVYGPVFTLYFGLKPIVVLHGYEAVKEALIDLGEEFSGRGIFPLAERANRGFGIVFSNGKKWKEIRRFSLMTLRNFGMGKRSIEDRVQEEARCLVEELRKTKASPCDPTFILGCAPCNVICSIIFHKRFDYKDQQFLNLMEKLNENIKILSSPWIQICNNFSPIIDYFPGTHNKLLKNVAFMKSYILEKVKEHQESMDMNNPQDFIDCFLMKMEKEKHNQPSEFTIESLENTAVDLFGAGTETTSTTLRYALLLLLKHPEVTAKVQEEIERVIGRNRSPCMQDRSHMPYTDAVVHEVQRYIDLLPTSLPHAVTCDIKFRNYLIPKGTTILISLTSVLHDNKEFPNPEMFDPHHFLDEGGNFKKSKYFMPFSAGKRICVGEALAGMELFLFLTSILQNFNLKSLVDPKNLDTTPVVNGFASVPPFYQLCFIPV
# [12] = target: T3, Heat shock factor protein 1 (Mus musculus, UniProt P38532); assay: enhancement of HSF1-driven luciferase signal – cell-based, NIH3T3, luminescence, dose retest, confirmation (AID 435004); format: functional;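 note: stress induced by proteasome inhibitor MG132 added 30 min after compound; luciferase reporter driven by HSF1 response element in NIH3T3 cells; actives raise luminescence as potentiators of the MG132 stress response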
# T3 sequence (P38532 whole entry): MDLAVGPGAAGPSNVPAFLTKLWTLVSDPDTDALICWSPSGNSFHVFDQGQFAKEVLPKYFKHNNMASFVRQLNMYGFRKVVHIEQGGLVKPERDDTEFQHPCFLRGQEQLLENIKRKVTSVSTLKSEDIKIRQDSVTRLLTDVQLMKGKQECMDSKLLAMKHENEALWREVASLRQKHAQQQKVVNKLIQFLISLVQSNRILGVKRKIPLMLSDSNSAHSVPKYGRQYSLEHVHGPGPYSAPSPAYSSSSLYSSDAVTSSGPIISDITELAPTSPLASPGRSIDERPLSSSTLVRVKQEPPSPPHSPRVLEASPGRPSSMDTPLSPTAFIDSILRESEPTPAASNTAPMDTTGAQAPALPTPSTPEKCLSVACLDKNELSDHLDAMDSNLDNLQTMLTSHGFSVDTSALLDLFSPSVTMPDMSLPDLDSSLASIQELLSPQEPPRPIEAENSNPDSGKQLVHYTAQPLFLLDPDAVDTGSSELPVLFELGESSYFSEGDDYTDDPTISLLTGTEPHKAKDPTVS
# [13] = target: Cytochrome P450 3A4 (Homo sapiens, UniProt P08684);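 note: CYP3A4 tested as one member of a cytochrome P450 panel screen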
# Cytochrome P450 3A4, sequence (P08684 whole entry): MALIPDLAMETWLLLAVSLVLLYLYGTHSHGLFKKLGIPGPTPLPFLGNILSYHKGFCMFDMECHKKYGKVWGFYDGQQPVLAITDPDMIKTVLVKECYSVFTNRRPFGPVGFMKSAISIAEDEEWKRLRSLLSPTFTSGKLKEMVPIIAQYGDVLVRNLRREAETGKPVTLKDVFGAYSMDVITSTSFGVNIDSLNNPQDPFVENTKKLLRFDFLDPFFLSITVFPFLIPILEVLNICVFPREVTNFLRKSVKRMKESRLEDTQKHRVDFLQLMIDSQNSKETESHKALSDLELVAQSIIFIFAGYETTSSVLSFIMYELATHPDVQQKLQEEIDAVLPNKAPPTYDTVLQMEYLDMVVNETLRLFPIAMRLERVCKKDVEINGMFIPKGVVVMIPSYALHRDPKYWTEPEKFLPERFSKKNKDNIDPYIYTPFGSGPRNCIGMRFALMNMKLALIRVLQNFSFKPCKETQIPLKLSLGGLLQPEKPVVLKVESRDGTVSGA
compound,measurement,setting,value
CC(=O)N(C)c1ccc(NC(S)=Nc2cccc3ccccc23)cc1,EC50,[1],15.8 µM (active)
same,EC50,[2],29.5 µM (active)
same,EC50,[3],30.7 µM (active)
COc1cc2c(cc1O)C[C@@H]1c3c(cc(O)c(OC)c3-2)CCN1C,AC50,[4],3.16 µM (inconclusive)
Cc1ccc(Nc2ncnc3sc(C)c(C)c23)cc1,EC50,[1],18.1 µM (active)
same,EC50,[2],19.5 µM (active)
same,EC50,[3],26.3 µM (active)
O=S(=O)(c1ccccc1C(F)(F)F)N1CCN(c2ncnc3sccc23)CC1,AC50,[5],9.4 µM (active)
same,AC50,[6],8.89 µM (active)
same,AC50,[7],3.44 µM (active)
COc1cccc(CN2CC(C(=O)NCc3ccc(Cl)s3)CCC2=O)c1 (configuration not stated),IC50,[8],> 47.1 µM (inactive)
same,EC50,[9],> 53 µM (inactive)
COc1ccc2nc(O)c(CN(CCc3ccccc3)C(C)=O)cc2c1,AC50,[4],14.1 µM (inconclusive)
same,AC50,[10],14.1 µM (inconclusive)
same,AC50,[11],14.1 µM (inconclusive)
CC(=O)c1cc(C#N)c(Oc2ccc(Cl)cc2Cl)nc1C,IC50,[8],> 47.1 µM (inactive)
same,EC50,[9],> 53 µM (inactive)
CCN(CC)Cc1c(C)nc2ccc(NC(C)=O)cc2c1O,IC50,[8],> 47.1 µM (inactive)
same,EC50,[9],> 53 µM (inactive)
FC(F)(F)c1ccccc1-c1cncnc1Nc1ccccc1,AC50,[4],39.8 µM (inconclusive)
same,AC50,[10],25.1 µM (inconclusive)
O=C(c1cc2nc(-c3ccc(F)cc3)cc(C(F)(F)F)n2n1)N1CCOCC1,IC50,[8],> 47.1 µM (inactive)
same,EC50,[9],> 53 µM (inactive)
Cc1ccccc1Nc1nc(N)nc(COC(=O)c2cccc(S(=O)(=O)N(C)c3ccccc3)c2)n1,IC50,[8],> 47.1 µM (inactive)
same,EC50,[9],> 53 µM (inactive)
Cc1ccc(NC(=O)c2oc3ccccc3c2COC(C)C)cc1S(=O)(=O)N1CCOCC1,AC50,[6],> 70 µM (inactive)
same,AC50,[7],14.4 µM (active)
N#Cc1cn(-c2ccccc2)nc1C(=O)c1ccccc1,EC50,[1],> 120 µM (not active)
same,EC50,[2],> 120 µM (not active)
same,EC50,[3],> 120 µM (not active)
O=C(CCNS(=O)(=O)c1ccc2c(c1)CCC(=O)N2)NCc1ccc2c(c1)OCO2,AC50,[4],22.4 µM (inconclusive)
same,AC50,[11],39.8 µM (inconclusive)
COc1ccc(CN2CCC(CO)(CCOc3ccccc3)CC2)cc1C,IC50,[8],> 47.1 µM (inactive)
same,EC50,[9],> 53 µM (inactive)
COc1ccc(NC(=O)COc2ccccc2Cc2ccccc2)cc1S(N)(=O)=O,EC50,[12],> 260 µM (inactive)
CCC(=O)Nc1c(S(=O)(=O)c2ccccc2)c2nc3ccccc3nc2n1C(C)c1ccccc1 (configuration not stated),EC50,[12],> 260 µM (inactive)
CCOC(=O)O[C@]1(C(=O)COC(=O)CC)CC[C@@H]2[C@@H]3CCC4=CC(=O)C=C[C@@]4(C)[C@H]3[C@H](O)C[C@]21C,AC50,[4],12.6 µM (inconclusive)
same,AC50,[11],12.6 µM (inconclusive)
same,AC50,[13],12.6 µM (inconclusive)
O=[N+]([O-])c1ccc(S(=O)(=O)Cc2ccccc2)c([N+](=O)[O-])c1,AC50,[4],2.51 µM (inconclusive)
same,AC50,[10],5.01 µM (inconclusive)
Cc1ccc2c(c1)c(C)c(C)n2CC(O)Cn1nc(C)c(Br)c1C (configuration not stated),EC50,[12],> 260 µM (inactive)

# Source: ChEMBL document CHEMBL1201862, “PubChem BioAssay data set” (2004)
